{"source": "ChEMBL document CHEMBL5321262", "about": "“Antiviral Activity of Cannabidiolic Acid and Its Methyl Ester against SARS-CoV-2” (J Nat Prod, 2023)", "key": {"SARS-CoV-2 [1]": {"system": "SARS-CoV-2", "assay": "Antiviral activity against SARS-CoV-2 variant Omicron BA.5 infected African green monkey Vero E6 cells assessed as reduction in virus-induced cytopathic effect at 37.5 uM preincubated with virus for 1 hr followed by infection with cells and measured after 72 hrs by microscopic analysis", "assay_type": "functional, organism-based", "settings": "Severe acute respiratory syndrome coronavirus 2, time 73.0 hrs"}, "SARS-CoV-2 [2]": {"system": "SARS-CoV-2", "assay": "Antiviral activity against SARS-CoV-2 variant Omicron BA.2 infected in African green monkey Vero E6 cells assessed as reduction in virus-induced cytopathic effect at 37.5 uM preincubated with virus for 1 hr followed by infection with cells and measured after 72 hrs by microscopic analysis", "assay_type": "functional, organism-based", "settings": "Severe acute respiratory syndrome coronavirus 2, time 73.0 hrs"}, "SARS-CoV-2 [3]": {"system": "SARS-CoV-2", "assay": "Antiviral activity against SARS-CoV-2 variant Omicron BA.3 infected African green monkey Vero E6 cells assessed as reduction in virus-induced cytopathic effect at 37.5 uM preincubated with virus for 1 hr followed by infection with cells and measured after 72 hrs by microscopic analysis", "assay_type": "functional, organism-based", "settings": "Severe acute respiratory syndrome coronavirus 2, time 73.0 hrs"}, "SARS-CoV-2 [4]": {"system": "SARS-CoV-2", "assay": "Antiviral activity against SARS-CoV-2 variant Omicron BA.3 infected in African green monkey Vero E6 cells assessed as reduction in viral replication at 37.5 uM measured at 72 hrs post-infection by qRT-PCR analysis", "assay_type": "functional, organism-based", "settings": "Severe acute respiratory syndrome coronavirus 2"}, "SARS-CoV-2 [5]": {"system": "SARS-CoV-2", "assay": "Antiviral activity against SARS-CoV-2 variant Omicron BA.5 infected in African green monkey Vero E6 cells assessed as reduction in virus titers of progeny virus in supernatant measured after 72 hrs by CPE assay", "assay_type": "functional, organism-based", "settings": "Severe acute respiratory syndrome coronavirus 2, Omicron BA.5, Vero C1008, 72 h"}, "SARS-CoV-2 [6]": {"system": "SARS-CoV-2", "assay": "Antiviral activity against SARS-CoV-2 variant Omicron BA.5 infected in African green monkey Vero E6 cells assessed as reduction in viral replication at 37.5 uM measured at 72 hrs post-infection by qRT-PCR analysis", "assay_type": "functional, organism-based", "settings": "Severe acute respiratory syndrome coronavirus 2"}, "SARS-CoV-2 [7]": {"system": "SARS-CoV-2", "assay": "Antiviral activity against SARS-CoV-2 variant Omicron BA.2 infected in African green monkey Vero E6 cells assessed as reduction in viral replication at 37.5 uM measured at 72 hrs post-infection by qRT-PCR analysis", "assay_type": "functional, organism-based", "settings": "Severe acute respiratory syndrome coronavirus 2"}, "SARS-CoV-2 [8]": {"system": "SARS-CoV-2", "assay": "Antiviral activity against SARS-CoV-2 variant Delta infected in African green monkey Vero E6 cells assessed as reduction in viral replication at 37.5 uM measured at 72 hrs post-infection by qRT-PCR analysis", "assay_type": "functional, organism-based", "settings": "Severe acute respiratory syndrome coronavirus 2"}, "SARS-CoV-2 [9]": {"system": "SARS-CoV-2", "assay": "Antiviral activity against SARS-CoV-2 variant Omicron BA.1 infected in African green monkey Vero E6 cells assessed as inhibition of virus titers of progeny virus in supernatant at 37.5 uM measured after 72 hrs by CPE assay relative to control", "assay_type": "functional", "settings": "Severe acute respiratory syndrome coronavirus 2, Omicron BA.1, Vero C1008"}, "SARS-CoV-2 [10]": {"system": "SARS-CoV-2", "assay": "Antiviral activity against SARS-CoV-2 variant Omicron BA.5 infected in African green monkey Vero E6 cells assessed as inhibition of virus titers of progeny virus in supernatant at 37.5 uM measured after 72 hrs by CPE assay relative to control", "assay_type": "functional", "settings": "Severe acute respiratory syndrome coronavirus 2, Omicron BA.5, Vero C1008"}, "SARS-CoV-2 [11]": {"system": "SARS-CoV-2", "assay": "Antiviral activity against SARS-CoV-2 variant Omicron BA.1 infected in African green monkey Vero E6 cells assessed as reduction in viral replication at 37.5 uM measured at 72 hrs post-infection by qRT-PCR analysis", "assay_type": "functional, organism-based", "settings": "Severe acute respiratory syndrome coronavirus 2"}, "SARS-CoV-2 [12]": {"system": "SARS-CoV-2", "assay": "Antiviral activity against SARS-CoV-2 variant Omicron BA.2 infected in African green monkey Vero E6 cells assessed as inhibition of virus titers of progeny virus in supernatant at 37.5 uM measured after 72 hrs by CPE assay relative to control", "assay_type": "functional", "settings": "Severe acute respiratory syndrome coronavirus 2, Omicron BA.2, Vero C1008"}, "SARS-CoV-2 [13]": {"system": "SARS-CoV-2", "assay": "Antiviral activity against SARS-CoV-2 variant Omicron BA.2 infected in African green monkey Vero E6 cells assessed as reduction in virus titers of progeny virus in supernatant measured after 72 hrs by CPE assay", "assay_type": "functional, organism-based", "settings": "Severe acute respiratory syndrome coronavirus 2, Omicron BA.2, Vero C1008, 72 h"}, "SARS-CoV-2 [14]": {"system": "SARS-CoV-2", "assay": "Antiviral activity against SARS-CoV-2 variant Delta infected in African green monkey Vero E6 cells assessed as inhibition of virus titers of progeny virus in supernatant at 37.5 uM measured after 72 hrs by CPE assay relative to control", "assay_type": "functional", "settings": "Severe acute respiratory syndrome coronavirus 2, Delta, Vero C1008"}, "SARS-CoV-2 [15]": {"system": "SARS-CoV-2", "assay": "Antiviral activity against SARS-CoV-2 variant Delta infected in African green monkey Vero E6 cells assessed as reduction in virus titers of progeny virus in supernatant measured after 72 hrs by CPE assay", "assay_type": "functional, organism-based", "settings": "Severe acute respiratory syndrome coronavirus 2, Delta, Vero C1008, 72 h"}, "SARS-CoV-2 [16]": {"system": "SARS-CoV-2", "assay": "Antiviral activity against SARS-CoV-2 variant Omicron BA.4 infected in African green monkey Vero E6 cells assessed as reduction in viral replication at 37.5 uM measured at 72 hrs post-infection by qRT-PCR analysis", "assay_type": "functional, organism-based", "settings": "Severe acute respiratory syndrome coronavirus 2"}, "SARS-CoV-2 [17]": {"system": "SARS-CoV-2", "assay": "Antiviral activity against SARS-CoV-2 variant Delta infected in African green monkey Vero E6 cells assessed as reduction in virus-induced cytopathic effect at 37.5 uM preincubated with virus for 1 hr followed by infection with cells and measured after 72 hrs by microscopic analysis", "assay_type": "functional, organism-based", "settings": "Severe acute respiratory syndrome coronavirus 2, time 73.0 hrs"}, "SARS-CoV-2 [18]": {"system": "SARS-CoV-2", "assay": "Antiviral activity against SARS-CoV-2 variant Omicron BA.4 infected in African green monkey Vero E6 cells assessed as reduction in virus titers of progeny virus in supernatant measured after 72 hrs by CPE assay", "assay_type": "functional, organism-based", "settings": "Severe acute respiratory syndrome coronavirus 2, Omicron BA.4, Vero C1008, 72 h"}, "SARS-CoV-2 [19]": {"system": "SARS-CoV-2", "assay": "Antiviral activity against SARS-CoV-2 variant Omicron BA.1 infected in African green monkey Vero E6 cells assessed as reduction in virus titers of progeny virus in supernatant measured after 72 hrs by CPE assay", "assay_type": "functional, organism-based", "settings": "Severe acute respiratory syndrome coronavirus 2, Omicron BA.1, Vero C1008, 72 h"}, "SARS-CoV-2 [20]": {"system": "SARS-CoV-2", "assay": "Antiviral activity against SARS-CoV-2 variant Omicron BA.4 infected in African green monkey Vero E6 cells assessed as inhibition of virus titers of progeny virus in supernatant at 37.5 uM measured after 72 hrs by CPE assay relative to control", "assay_type": "functional", "settings": "Severe acute respiratory syndrome coronavirus 2, Omicron BA.4, Vero C1008"}, "SARS-CoV-2 [21]": {"system": "SARS-CoV-2", "assay": "Antiviral activity against SARS-CoV-2 variant Omicron BA.4 infected African green monkey Vero E6 cells assessed as reduction in virus-induced cytopathic effect at 37.5 uM preincubated with virus for 1 hr followed by infection with cells and measured after 72 hrs by microscopic analysis", "assay_type": "functional, organism-based", "settings": "Severe acute respiratory syndrome coronavirus 2, time 73.0 hrs"}, "SARS-CoV-2 [22]": {"system": "SARS-CoV-2", "assay": "Antiviral activity against SARS-CoV-2 variant Omicron BA.3 infected in African green monkey Vero E6 cells assessed as reduction in virus titers of progeny virus in supernatant measured after 72 hrs by CPE assay", "assay_type": "functional, organism-based", "settings": "Severe acute respiratory syndrome coronavirus 2, Omicron BA.3, Vero C1008, 72 h"}, "SARS-CoV-2 [23]": {"system": "SARS-CoV-2", "assay": "Antiviral activity against SARS-CoV-2 variant Omicron BA.1 infected in African green monkey Vero E6 cells assessed as reduction in virus-induced cytopathic effect at 37.5 uM preincubated with virus for 1 hr followed by infection with cells and measured after 72 hrs by microscopic analysis", "assay_type": "functional, organism-based", "settings": "Severe acute respiratory syndrome coronavirus 2, time 73.0 hrs"}, "SARS-CoV-2 [24]": {"system": "SARS-CoV-2", "assay": "Antiviral activity against SARS-CoV-2 variant Omicron BA.3 infected in African green monkey Vero E6 cells assessed as inhibition of virus titers of progeny virus in supernatant at 37.5 uM measured after 72 hrs by CPE assay relative to control", "assay_type": "functional", "settings": "Severe acute respiratory syndrome coronavirus 2, Omicron BA.3, Vero C1008"}}, "note": "The source made the active and inactive calls. The calls are words filed in the database; no cut-off is given here."}
{"smiles": "C=C(C)[C@@H]1CCC(C)=C[C@H]1c1c(O)cc(CCCCC)c(C(=O)OC)c1O", "values": [{"measurement": "Activity", "setting": "SARS-CoV-2 [1]", "result": "Active"}, {"measurement": "Activity", "setting": "SARS-CoV-2 [2]", "result": "Active"}, {"measurement": "Activity", "setting": "SARS-CoV-2 [3]", "result": "Active"}, {"measurement": "Activity", "setting": "SARS-CoV-2 [4]", "result": "Active"}, {"measurement": "IC50", "setting": "SARS-CoV-2 [5]", "result": 18.6, "unit": "µM"}, {"measurement": "Activity", "setting": "SARS-CoV-2 [6]", "result": "Active"}, {"measurement": "Activity", "setting": "SARS-CoV-2 [7]", "result": "Active"}, {"measurement": "Activity", "setting": "SARS-CoV-2 [8]", "result": "Active"}, {"measurement": "inhibition at 37.5 µM", "setting": "SARS-CoV-2 [9]", "result": "> 90", "unit": "%"}, {"measurement": "inhibition at 37.5 µM", "setting": "SARS-CoV-2 [10]", "result": "> 90", "unit": "%"}, {"measurement": "Activity", "setting": "SARS-CoV-2 [11]", "result": "Active"}, {"measurement": "inhibition at 37.5 µM", "setting": "SARS-CoV-2 [12]", "result": "> 90", "unit": "%"}, {"measurement": "IC50", "setting": "SARS-CoV-2 [13]", "result": 16.6, "unit": "µM"}, {"measurement": "inhibition at 37.5 µM", "setting": "SARS-CoV-2 [14]", "result": "> 90", "unit": "%"}, {"measurement": "IC50", "setting": "SARS-CoV-2 [15]", "result": 15.9, "unit": "µM"}, {"measurement": "Activity", "setting": "SARS-CoV-2 [16]", "result": "Active"}, {"measurement": "Activity", "setting": "SARS-CoV-2 [17]", "result": "Active"}, {"measurement": "IC50", "setting": "SARS-CoV-2 [18]", "result": 19, "unit": "µM"}, {"measurement": "IC50", "setting": "SARS-CoV-2 [19]", "result": 15.5, "unit": "µM"}, {"measurement": "inhibition at 37.5 µM", "setting": "SARS-CoV-2 [20]", "result": "> 90", "unit": "%"}, {"measurement": "Activity", "setting": "SARS-CoV-2 [21]", "result": "Active"}, {"measurement": "IC50", "setting": "SARS-CoV-2 [22]", "result": 18.6, "unit": "µM"}, {"measurement": "Activity", "setting": "SARS-CoV-2 [23]", "result": "Active"}, {"measurement": "inhibition at 37.5 µM", "setting": "SARS-CoV-2 [24]", "result": "> 90", "unit": "%"}]}
